Experimental data taken from US20240197823A1, “CATIONIC ANTIMICROBIAL PEPTIDES AND USES THEREOF” (priority 2021, published 2024).
No end group written: not given here.

Key:
human red blood cells = details: at 16 μM, published data; cited from earlier work
MDR strain PA239 [1] = test: Membrane permeabilization, PI incorporation by flow cytometry; assay type: cell-based, Pseudomonas aeruginosa; details: PA239, 1% triton X-100
Excerpt: (§1) Determination of membrane permeabilization. To examine whether the selected peptides kill their bacterial target mainly by membrane permeabilization, this study used PI incorporation by the MDR strain PA239 (5×10^8 CFU/mL) quantitated by flow cytometry (Novocyte, USA) or visualized by video imaging using the digital microscope EVOS M7000 (Thermo-Fisher, USA) in bright field or red fluorescence channel. In the flow cytometry experiments [Deslouches B et al., 2015], bacterial cells were either untreated or treated with different peptide E35 concentrations in MHB2 for 1 hour at 37° C. The bacteria-peptide mixture was washed with PBS using an Eppendorf centrifuge at top speed for 7 minutes and incubated with PI in the dark for 15 min at room temperature. Tobramycin was used as a negative control with a 3-hour long incubation. For video imaging, the broth medium was reduced to 20% in PBS (treated or untreated) to decrease the rate of cell division and PI incorporation assessed over time. Video images were recorded in real time using the 40× objective either in bright field or red fluorescence channel.

[2] = Mouse toxicity, maximum tolerated dose; assay type: in vivo, CD-1 mice
Description: Mouse toxicity. For all animal experiments, the protocol #18071776 approved by the Institutional Animal Care and Use Committee (IACUC) of the University of Pittsburgh was used, which is consistent with the NIH guide for the care and use of laboratory animals. In a preliminary (pilot) experiment, female CD-1 mice (3 per group) weighing about 20 g were injected different doses of peptides up to 45 mpk via a lateral tail vein (IV) to determine an MTD (dose that results in no apparent morbidity or mortality). To confirm the MTD determined in the pilot study, CD-1 mice (7 per group) were randomized to receive a dose based on the preliminary MTD (IV) or PBS (100 μL). The animals were monitored for up to 7 days for morbidity and survival.

[3] = tested on: P. aeruginosa strain PA239; test: Bactericidal assay in FBS-containing medium (FMP); assay type: cell-based, Pseudomonas aeruginosa; details: within the 3 h of incubation
Description: (§2) To test whether PAX follow this common mechanism, the experiment initially examined the bactericidal activity of the top selection, PAX E35, against the MDR P. aeruginosa strain PA239 (resistant to all 12 test antibiotics, including colistin, Table 6). Bactericidal properties were assessed using a medium called FMP (FBS, 15%; MHB2, 25%; PBS, 60%) that is more physiologically relevant than MHB2 with the inclusion of saline and fetal bovine serum, a known inhibitory condition for many AMPs [Di Y P et al., 2020; Deslouches B et al., 2005]. […] In addition, E35 killed 2 logs of the bacterial cells within the first minute of treatment at 2 μM and 4 μM, compared to the non-effective tobramycin (FIG. 6B). No bacterial cells survived E35 treatment after 5-10 minutes of incubation. […]
(§3) Antibacterial assays. […] The bacterial cells were kept in an incubator for 18 hours at 37° C., which is linked to a robotic system that feeds a plate reader every hour with one of 8×96-well plates. This set-up allows the collection of growth kinetic data at A 570 (absorbance at 570 nm) to examine growth inhibition in real time (BioTek Instruments, USA). […] MBC (minimum bactericidal concentration) was determined as the peptide concentration at which complete bacterial killing was observed [Rozek A et al., 2000]. […] Data were analyzed using GraphPad Prism software.

MDR strain PA239 [4] = test: Membrane permeabilization, PI incorporation by real-time video imaging; assay type: cell-based, Pseudomonas aeruginosa; details: PA239 at high inoculum (5×10^8 CFU/mL); E35 at 8 μM
Excerpt: as §1

[5] = tested on: P. aeruginosa strain PA239; test: Killing kinetics; assay type: cell-based, Pseudomonas aeruginosa; details: PA239, at 2 μM and 4 μM
Description: as §2, §3

Molecule: Ac-LKRVWKRVFKLLKRYWRQLKKPVR-NH2 [SAAP-148]
- red blood cell (RBC) lysis (human red blood cells): only moderate

Molecule: triton X-100
- PI incorporation (MDR strain PA239 [1]): 55%

Molecule: RRVWRWVRRVWRWVRR [E35]
- morbidity and mortality ([2]; 7 mice, systemically at 30 mpk): no apparent morbidity and mortality
- maximum tolerated dose, MTD ([2]; CD-1 mice, tail vein (IV)): 30 mpk

Molecule: NC[C@H]1O[C@H](O[C@H]2[C@H](O)[C@@H](O[C@H]3O[C@H](CO)[C@@H](O)[C@H](N)[C@H]3O)[C@H](N)C[C@@H]2N)[C@H](N)C[C@@H]1O [tobramycin]
- bacterial killing [3]: did not display any substantial bacterial killing
- PI incorporation by real-time video imaging (MDR strain PA239 [4]): did not demonstrate any markedly detectable intracellular PI
- bacterial cells killed within the first minute of treatment [5]: non-effective
